The values below come from patent US10336732B2, “1-heterocyclyl isochromanyl compounds and analogs for treating CNS disorders” (Sunovion Pharmaceuticals Inc., priority 2015, dated 2019).

The subject of the assay is mice. In words: Neuropharmacological assay (SmartCube), behavioral signature of compound-treated mice. Format: in vivo. To be noted: i.p. 15 min before behavioral test, most efficacious dose(s) of 3 doses. The method, boiled down: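 Read-out is an automated video-based behavioral signature, scored as per-class probabilities (e.g., anxiolytic, antidepressant) against reference compounds. Dosing was i.p. at three doses, 15 min pre-test, in NMP, polyethylene glycol and propylene glycol. Values shown are from the most efficacious dose(s).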
`Fc1ccc2c(c1)CCO[C@@H]2[C@@H]1CCCCN1` [Compound I-73, (S)-2-((S)-6-fluoroisochroman-1-yl)piperidine]: the “AD: ADHD (probability that behavioral signature matches class)” value (“AD: ADHD” below) is reported as “+ (LOQ ≤ + <5%)”, the “AG: analgesic (probability that behavioral signature matches class)” value (shortened to “AG: analgesic”) is given as “++ (5% ≤ ++ <25%)”, the “AX: anxiolytic (probability that behavioral signature matches class)” value (from here on “AX: anxiolytic”) is listed as “++ (5% ≤ ++ <25%)” and the “CE: cognitive enhancer (probability that behavioral signature matches class)” value (from here on “CE: cognitive enhancer”) is “++ (5% ≤ ++ <25%)”. Besides, the “DP: anti-depressant (probability that behavioral signature matches class)” value (from here on “DP: anti-depressant”) is given as “++ (5% ≤ ++ <25%)”, the “HA: hallucinogen (probability that behavioral signature matches class)” value (shortened to “HA: hallucinogen”) is recorded as “+ (LOQ ≤ + <5%)”, the “MS: mood stabilizer (probability that behavioral signature matches class)” value (“MS: mood stabilizer” for short) is given as “++ (5% ≤ ++ <25%)” and the “PS: anti-psychotic (probability that behavioral signature matches class)” value (shortened to “PS: anti-psychotic”) is recorded as “+ (LOQ ≤ + <5%)”. In addition, the “SD: sedative hypnotic (probability that behavioral signature matches class)” value (shortened to “SD: sedative hypnotic”) is “+ (LOQ ≤ + <5%)”, the “UN: uncharacterized CNS activity (probability that behavioral signature matches class)” value (from here on “UN: uncharacterized CNS activity”) was “+++ (25% ≤ +++ <50%)” and the “XG: anxiogenic (probability that behavioral signature matches class)” value (“XG: anxiogenic” below) is on record as “+ (LOQ ≤ + <5%)”.
Consider `Fc1ccc2c(c1)CCO[C@H]2[C@@H]1CCCCN1` [Compound I-74, (S)-2-((R)-6-fluoroisochroman-1-yl)piperidine], for which the “AD: ADHD” value was “+ (LOQ ≤ + <5%)”, the “AG: analgesic” value is listed as “++ (5% ≤ ++ <25%)”, the “AX: anxiolytic” value is reported as “++ (5% ≤ ++ <25%)” and the “CE: cognitive enhancer” value is “++ (5% ≤ ++ <25%)”. In addition, the “DP: anti-depressant” value was “++ (5% ≤ ++ <25%)”, the “HA: hallucinogen” value is “+ (LOQ ≤ + <5%)”, the “MS: mood stabilizer” value is reported as “+ (LOQ ≤ + <5%)” and the “PS: anti-psychotic” value was “+++ (25% ≤ +++ <50%)”. The “SD: sedative hypnotic” value is listed as “++ (5% ≤ ++ <25%)”, the “UN: uncharacterized CNS activity” value is recorded as “+ (LOQ ≤ + <5%)” and the “XG: anxiogenic” value was “+ (LOQ ≤ + <5%)”.
`c1ccc2c(c1)CCO[C@@H]2[C@@H]1COCCN1` [Compound I-75, (S)-3-((S)-isochroman-1-yl)morpholine]: the “AD: ADHD” value is recorded as “+ (LOQ ≤ + <5%)”, the “AG: analgesic” value is “+ (LOQ ≤ + <5%)”, the “AX: anxiolytic” value is reported as “++ (5% ≤ ++ <25%)” and the “CE: cognitive enhancer” value is recorded as “++ (5% ≤ ++ <25%)”. The “DP: anti-depressant” value was “+++ (25% ≤ +++ <50%)”, the “HA: hallucinogen” value is “+ (LOQ ≤ + <5%)”, the “MS: mood stabilizer” value is “++ (5% ≤ ++ <25%)” and the “PS: anti-psychotic” value is “++ (5% ≤ ++ <25%)”. For the same compound, the “SD: sedative hypnotic” value is “++ (5% ≤ ++ <25%)”, the “UN: uncharacterized CNS activity” value was “+ (LOQ ≤ + <5%)” and the “XG: anxiogenic” value is on record as “+ (LOQ ≤ + <5%)”.
Consider `c1ccc2c(c1)CCO[C@H]2[C@@H]1COCCN1` [Compound I-76, (S)-3-((R)-isochroman-1-yl)morpholine], for which the “AD: ADHD” value was “+ (LOQ ≤ + <5%)”, the “AG: analgesic” value is listed as “++ (5% ≤ ++ <25%)”, the “AX: anxiolytic” value is given as “++ (5% ≤ ++ <25%)” and the “CE: cognitive enhancer” value was “+ (LOQ ≤ + <5%)”. Moreover, the “DP: anti-depressant” value was “++ (5% ≤ ++ <25%)”, the “HA: hallucinogen” value is “+ (LOQ ≤ + <5%)”, the “MS: mood stabilizer” value is listed as “+ (LOQ ≤ + <5%)” and the “PS: anti-psychotic” value is on record as “++ (5% ≤ ++ <25%)”. Also, the “SD: sedative hypnotic” value is on record as “+ (LOQ ≤ + <5%)”, the “UN: uncharacterized CNS activity” value is given as “+ (LOQ ≤ + <5%)” and the “XG: anxiogenic” value is “+ (LOQ ≤ + <5%)”.
Consider `Fc1ccc2c(c1)CCO[C@@H]2[C@@H]1COCCN1` [Compound I-77, (S)-3-((S)-6-fluoroisochroman-1-yl)morpholine], for which the “AD: ADHD” value is reported as “+ (LOQ ≤ + <5%)”, the “AG: analgesic” value is on record as “+ (LOQ ≤ + <5%)”, the “AX: anxiolytic” value is recorded as “++ (5% ≤ ++ <25%)” and the “CE: cognitive enhancer” value is reported as “+ (LOQ ≤ + <5%)”. Also, the “DP: anti-depressant” value is “+ (LOQ ≤ + <5%)”, the “HA: hallucinogen” value is on record as “+ (LOQ ≤ + <5%)”, the “MS: mood stabilizer” value is on record as “+ (LOQ ≤ + <5%)” and the “PS: anti-psychotic” value is “+ (LOQ ≤ + <5%)”. Further, the “SD: sedative hypnotic” value is “+ (LOQ ≤ + <5%)”, the “UN: uncharacterized CNS activity” value is “+ (LOQ ≤ + <5%)” and the “XG: anxiogenic” value is listed as “+ (LOQ ≤ + <5%)”.
Consider `Fc1ccc2c(c1)CCO[C@H]2[C@@H]1COCCN1` [Compound I-78, (S)-3-((R)-6-fluoroisochroman-1-yl)morpholine], for which the “AD: ADHD” value is “+ (LOQ ≤ + <5%)”, the “AG: analgesic” value is reported as “++ (5% ≤ ++ <25%)”, the “AX: anxiolytic” value is given as “+++ (25% ≤ +++ <50%)” and the “CE: cognitive enhancer” value was “++ (5% ≤ ++ <25%)”. Also, the “DP: anti-depressant” value was “++ (5% ≤ ++ <25%)”, the “HA: hallucinogen” value is “+ (LOQ ≤ + <5%)”, the “MS: mood stabilizer” value is reported as “+ (LOQ ≤ + <5%)” and the “PS: anti-psychotic” value is reported as “++ (5% ≤ ++ <25%)”. For the same compound, the “SD: sedative hypnotic” value is “+ (LOQ ≤ + <5%)”, the “UN: uncharacterized CNS activity” value is on record as “+ (LOQ ≤ + <5%)” and the “XG: anxiogenic” value is recorded as “+ (LOQ ≤ + <5%)”.
With `c1ccc2c(c1)CCO[C@@H]2[C@@H]1CCN1` [Compound I-79, (S)-2-((S)-isochroman-1-yl)azetidine], the “AD: ADHD” value is recorded as “++ (5% ≤ ++ <25%)”, the “AG: analgesic” value is “++ (5% ≤ ++ <25%)”, the “AX: anxiolytic” value is given as “+++ (25% ≤ +++ <50%)” and the “CE: cognitive enhancer” value is on record as “++ (5% ≤ ++ <25%)”. Moreover, the “DP: anti-depressant” value is given as “++ (5% ≤ ++ <25%)”, the “HA: hallucinogen” value is “+ (LOQ ≤ + <5%)”, the “MS: mood stabilizer” value was “++ (5% ≤ ++ <25%)” and the “PS: anti-psychotic” value is given as “+++ (25% ≤ +++ <50%)”. Moreover, the “SD: sedative hypnotic” value is “+ (LOQ ≤ + <5%)”, the “UN: uncharacterized CNS activity” value is given as “+ (LOQ ≤ + <5%)” and the “XG: anxiogenic” value is on record as “+ (LOQ ≤ + <5%)”.
Turning to `c1ccc2c(c1)CCO[C@H]2[C@@H]1CCN1` [Compound I-80, (S)-2-((R)-iso-chroman-1-yl)azetidine], the “AD: ADHD” value was “+ (LOQ ≤ + <5%)”, the “AG: analgesic” value is “++ (5% ≤ ++ <25%)”, the “AX: anxiolytic” value is given as “++ (5% ≤ ++ <25%)” and the “CE: cognitive enhancer” value is “++ (5% ≤ ++ <25%)”. In addition, the “DP: anti-depressant” value was “+++ (25% ≤ +++ <50%)”, the “HA: hallucinogen” value is given as “+ (LOQ ≤ + <5%)”, the “MS: mood stabilizer” value is listed as “++ (5% ≤ ++ <25%)” and the “PS: anti-psychotic” value is “++ (5% ≤ ++ <25%)”. Further, the “SD: sedative hypnotic” value is recorded as “+ (LOQ ≤ + <5%)”, the “UN: uncharacterized CNS activity” value is recorded as “+++ (25% ≤ +++ <50%)” and the “XG: anxiogenic” value was “+ (LOQ ≤ + <5%)”.
Regarding `c1ccc2c(c1)CCO[C@@H]2[C@H]1CCN1` [Compound I-81, (R)-2-((S)-isochroman-1-yl)azetidine], the “AD: ADHD” value is “+ (LOQ ≤ + <5%)”, the “AG: analgesic” value was “++ (5% ≤ ++ <25%)”, the “AX: anxiolytic” value is recorded as “+++ (25% ≤ +++ <50%)” and the “CE: cognitive enhancer” value was “++ (5% ≤ ++ <25%)”. Also, the “DP: anti-depressant” value is on record as “++ (5% ≤ ++ <25%)”, the “HA: hallucinogen” value is “+ (LOQ ≤ + <5%)”, the “MS: mood stabilizer” value is on record as “+ (LOQ ≤ + <5%)” and the “PS: anti-psychotic” value was “++ (5% ≤ ++ <25%)”. The “SD: sedative hypnotic” value is given as “+++ (25% ≤ +++ <50%)”, the “UN: uncharacterized CNS activity” value was “+ (LOQ ≤ + <5%)” and the “XG: anxiogenic” value is recorded as “+ (LOQ ≤ + <5%)”.
With `c1ccc2c(c1)CCO[C@H]2[C@H]1CCN1` [Compound I-82, (R)-2-((R)-isochroman-1-yl)azetidine], the “AD: ADHD” value was “+ (LOQ ≤ + <5%)”, the “AG: analgesic” value was “++ (5% ≤ ++ <25%)”, the “AX: anxiolytic” value is on record as “++ (5% ≤ ++ <25%)” and the “CE: cognitive enhancer” value is given as “++ (5% ≤ ++ <25%)”. In addition, the “DP: anti-depressant” value is on record as “+++ (25% ≤ +++ <50%)”, the “HA: hallucinogen” value is reported as “+ (LOQ ≤ + <5%)”, the “MS: mood stabilizer” value is given as “++ (5% ≤ ++ <25%)” and the “PS: anti-psychotic” value is reported as “++ (5% ≤ ++ <25%)”. Besides, the “SD: sedative hypnotic” value is “++ (5% ≤ ++ <25%)”, the “UN: uncharacterized CNS activity” value is given as “++ (5% ≤ ++ <25%)” and the “XG: anxiogenic” value is listed as “+ (LOQ ≤ + <5%)”.
